The source of these data is US8765173B2, “Drug delivery system for administration of a water soluble, cationic and amphiphilic pharmaceutically active substance” (Ardenia Investments, Ltd., priority 2007, dated 2014).

The conditions of data set [1]: stated in Example 1 without method; cited from earlier work.
Data set [2] is described as follows: Solubility in water by UV method. The following applies: thermodynamic from solid.
The next data set is described as follows: physchem. The settings on record: water, thermodynamic from solid.

In brackets after ≈: the same amount, converted by molar mass. Where a name gives a salt, the structure may show the parent alone.

For the molecule `COc1cccc2c1C(=O)c1c(O)c3c(c(O)c1C2=O)C[C@@](O)(C(=O)CO)C[C@@H]3O[C@H]1C[C@H](N)[C@H](O)[C@H](C)O1` [doxorubicin hydrochloride], the “soluble in water in an amount of” value in data set [1] is given as “more than 25 mg/ml”.

For the molecule `COc1cccc2c1C(=O)c1c(O)c3c(c(O)c1C2=O)C[C@@](O)(C(=O)CO)C[C@@H]3O[C@H]1C[C@H](N)[C@H](O)[C@H](C)O1` [doxorubicin in amine form, doxorubicin], the solubility in data set [2] came out at 15 µg/mL (≈ 27.6 µM).

Take `O=C1c2c(O)ccc(O)c2C(=O)c2c(NCCNCCO)ccc(NCCNCCO)c21` [mitoxantrone in amine form, mitoxantrone]: the concentration in solution in the data set “physchem” (solubility) came to 30 µg/mL (≈ 67.5 µM).

For the molecule `CC[C@@]1(O)C(=O)OCc2c1cc1n(c2=O)Cc2cc3c(CN(C)C)c(O)ccc3nc2-1` [topotecan in amine form, topotecan], the solubility in the data set “physchem” is 90 µg/mL (≈ 214 µM). This solubility is about 3-fold higher than that of the molecule before.
